Data as given in PubChem BioAssay AID1963831 (Molecular Pharmacology Branch, DTP, NCI, 2024).

Tested on: 889142-216-R-J1-PDC complex spheroid viability
Assay: Anticancer human tumor 889142-216-R-J1-PDC patient-derived bladder carcinoma cell line growth inhibition [POLQ]
Settings: for IC50: curve of first compound; for viability, T/C: stronger effect = lower value
How it was run: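 PDC + HUVEC + MSC complex spheroids; POLQ inhibitors ± partner drugs; top conc. at/near clinical Cmax, else 10 microM (SN-38 1 microM), half-log dilutions; 37 degrees C, 5% CO2.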

[1] = second compound 0.0316 µM, first compound 0.0316 µM
[2] = second compound 0.0316 µM, first compound 0.1 µM
[3] = second compound 0.0316 µM, first compound 0.316 µM
[4] = second compound 0.0316 µM, first compound 1 µM
[5] = second compound 0.0316 µM, first compound 3.16 µM
[6] = second compound 0.0316 µM, first compound 10 µM
[7] = second compound 0.1 µM, first compound 0.0316 µM
[8] = second compound 0.1 µM, first compound 0.1 µM
[9] = second compound 0.1 µM, first compound 0.316 µM
[10] = second compound 0.1 µM, first compound 1 µM
[11] = second compound 0.1 µM, first compound 3.16 µM
[12] = second compound 0.1 µM, first compound 10 µM
[13] = second compound 0.316 µM, first compound 0.0316 µM
[14] = second compound 0.316 µM, first compound 0.1 µM
[15] = second compound 0.316 µM, first compound 0.316 µM
[16] = second compound 0.316 µM, first compound 1 µM
[17] = second compound 0.316 µM, first compound 3.16 µM
[18] = second compound 0.316 µM, first compound 10 µM
[19] = second compound 1 µM, first compound 0.0316 µM
[20] = second compound 1 µM, first compound 0.1 µM
[21] = second compound 1 µM, first compound 0.316 µM
[22] = second compound 1 µM, first compound 1 µM
[23] = second compound 1 µM, first compound 3.16 µM
[24] = second compound 1 µM, first compound 10 µM
[25] = second compound 3.16 µM, first compound 0.0316 µM
[26] = second compound 3.16 µM, first compound 0.1 µM
[27] = second compound 3.16 µM, first compound 0.316 µM
[28] = second compound 3.16 µM, first compound 1 µM
[29] = second compound 3.16 µM, first compound 3.16 µM
[30] = second compound 3.16 µM, first compound 10 µM
[31] = second compound 10 µM, first compound 0.0316 µM
[32] = second compound 10 µM, first compound 0.1 µM
[33] = second compound 10 µM, first compound 0.316 µM
[34] = second compound 10 µM, first compound 1 µM
[35] = second compound 10 µM, first compound 3.16 µM
[36] = second compound 10 µM, first compound 10 µM
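Note: spheroids exposed to compounds for seven days.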
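Throughout, for viability, T/C: 100% = DMSO vehicle control viability.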

With `CNCc1ccc(-c2[nH]c3cc(F)cc4c3c2CCNC4=O)cc1` + Nc1ccc(C#CCN(C(=O)Cc2ncc(C(F)(F)F)cc2C(F)(F)F)c2ccc(F)cc2)nn1 the IC50 (second compound 0.0316 µM) was > 10 µM, the IC50 (second compound 0.1 µM) was > 10 µM and the IC50 (second compound 0.316 µM) was > 10 µM. For the same molecule, the IC50 (second compound 1 µM) was > 10 µM, the IC50 (second compound 3.16 µM) was > 10 µM and the IC50 (second compound 10 µM) was > 10 µM. The viability, T/C [1] was 109%, the viability, T/C [2] was 115% and the viability, T/C [3] was 123%. It also gave a viability, T/C [4] of 108%, a viability, T/C [5] of 74.8% and a viability, T/C [6] of 84.5%. For the same molecule, the viability, T/C [7] was 133%, the viability, T/C [8] was 93% and the viability, T/C [9] was 104%. It also gave a viability, T/C [10] of 96.3%, a viability, T/C [11] of 107% and a viability, T/C [12] of 83.9%. It also gave a viability, T/C [13] of 144%, a viability, T/C [14] of 82.9% and a viability, T/C [15] of 78.2%. The viability, T/C [16] was 78.2%, the viability, T/C [17] was 81.2% and the viability, T/C [18] was 82.8%. It also gave a viability, T/C [19] of 128%, a viability, T/C [20] of 83.3% and a viability, T/C [21] of 99.3%. It also gave a viability, T/C [22] of 88.2%, a viability, T/C [23] of 92.3% and a viability, T/C [24] of 75.5%. The viability, T/C [25] was 116%, the viability, T/C [26] was 96.1% and the viability, T/C [27] was 134%. The viability, T/C [28] was 122%, the viability, T/C [29] was 106% and the viability, T/C [30] was 81.4%. For the same molecule, the viability, T/C [31] was 125%, the viability, T/C [32] was 98.4% and the viability, T/C [33] was 104%. It also gave a viability, T/C [34] of 129%, a viability, T/C [35] of 108% and a viability, T/C [36] of 96.8%.
`Nc1ccn(C2OC(CO)C(O)C2(F)F)c(=O)n1` (stereo unspecified) + Nc1ccc(C#CCN(C(=O)Cc2ncc(C(F)(F)F)cc2C(F)(F)F)c2ccc(F)cc2)nn1 gave an IC50 (second compound 0.0316 µM) of 0.233 µM, an IC50 (second compound 0.1 µM) of 0.386 µM and an IC50 (second compound 0.316 µM) of 0.363 µM. It also gave an IC50 (second compound 1 µM) of 0.292 µM, an IC50 (second compound 3.16 µM) of 3.39 µM and an IC50 (second compound 10 µM) of 5.26 µM. The viability, T/C [1] was 74.1%, the viability, T/C [2] was 56.1% and the viability, T/C [3] was 46%. It also gave a viability, T/C [4] of 45.2%, a viability, T/C [5] of 40.9% and a viability, T/C [6] of 35.9%. It also gave a viability, T/C [7] of 62.8%, a viability, T/C [8] of 57.8% and a viability, T/C [9] of 48.9%. It also gave a viability, T/C [10] of 47.2%, a viability, T/C [11] of 38.8% and a viability, T/C [12] of 34.5%. For the same molecule, the viability, T/C [13] was 61.8%, the viability, T/C [14] was 56.1% and the viability, T/C [15] was 50.9%. For the same molecule, the viability, T/C [16] was 44%, the viability, T/C [17] was 45.6% and the viability, T/C [18] was 39.6%. For the same molecule, the viability, T/C [19] was 69.8%, the viability, T/C [20] was 55.6% and the viability, T/C [21] was 47%. For the same molecule, the viability, T/C [22] was 48.5%, the viability, T/C [23] was 43.5% and the viability, T/C [24] was 36.7%. The viability, T/C [25] was 56.4%, the viability, T/C [26] was 60.7% and the viability, T/C [27] was 60%. It also gave a viability, T/C [28] of 55.7%, a viability, T/C [29] of 49.5% and a viability, T/C [30] of 39.7%. The viability, T/C [31] was 88.9%, the viability, T/C [32] was 73.6% and the viability, T/C [33] was 69.5%. It also gave a viability, T/C [34] of 51.7%, a viability, T/C [35] of 55.7% and a viability, T/C [36] of 46.5%.
`O=C(c1cc(Cc2n[nH]c(=O)c3ccccc23)ccc1F)N1CCN(C(=O)C2CC2)CC1` + Nc1ccc(C#CCN(C(=O)Cc2ncc(C(F)(F)F)cc2C(F)(F)F)c2ccc(F)cc2)nn1 was tested, and the IC50 (second compound 0.0316 µM) was > 10 µM, the IC50 (second compound 0.1 µM) was > 10 µM and the IC50 (second compound 0.316 µM) was > 10 µM. The IC50 (second compound 1 µM) was > 10 µM, the IC50 (second compound 3.16 µM) was > 10 µM and the IC50 (second compound 10 µM) was > 10 µM. The viability, T/C [1] was 94%, the viability, T/C [2] was 93% and the viability, T/C [3] was 66.3%. The viability, T/C [4] was 118%, the viability, T/C [5] was 80.1% and the viability, T/C [6] was 73.5%. It also gave a viability, T/C [7] of 95.3%, a viability, T/C [8] of 112% and a viability, T/C [9] of 83.7%. For the same molecule, the viability, T/C [10] was 97.5%, the viability, T/C [11] was 79.5% and the viability, T/C [12] was 66.6%. The viability, T/C [13] was 110%, the viability, T/C [14] was 115% and the viability, T/C [15] was 85.2%. It also gave a viability, T/C [16] of 104%, a viability, T/C [17] of 97.5% and a viability, T/C [18] of 59.7%. It also gave a viability, T/C [19] of 152%, a viability, T/C [20] of 113% and a viability, T/C [21] of 94.8%. The viability, T/C [22] was 102%, the viability, T/C [23] was 85.2% and the viability, T/C [24] was 67.6%. For the same molecule, the viability, T/C [25] was 104%, the viability, T/C [26] was 92.4% and the viability, T/C [27] was 90.1%. The viability, T/C [28] was 98.2%, the viability, T/C [29] was 95.1% and the viability, T/C [30] was 62.8%. The viability, T/C [31] was 111%, the viability, T/C [32] was 110% and the viability, T/C [33] was 97.5%. The viability, T/C [34] was 90.9%, the viability, T/C [35] was 76.3% and the viability, T/C [36] was 86.2%.
